Experimental data from ChEMBL document CHEMBL5705893, “Targeting the mitotic checkpoint for cancer therapy with NMS-P715, an inhibitor of MPS1 kinase” (Cancer Res, 2010).
pIC50: −log10 of the molar value. Calls of active or inactive are those of the source. No cut-off for these calls is given here.

Legend:
RO82-W-1 = assay: Antiproliferative activity against human RO82-W-1 cells assessed as inhibition of cell growth incubated for 72 hrs by celltiter-glo assay; assay type: functional, cell-based; conditions: RO82-W-1, 72 h
[1] = Antiproliferative activity against human DERL-7 cells assessed as inhibition of cell growth incubated for 72 hrs by celltiter-glo assay; assay type: functional, cell-based; conditions: DERL7, 72 h
BT-549 = assay: Antiproliferative activity against human BT-549 cells assessed as inhibition of cell growth incubated for 72 hrs by celltiter-glo assay; assay type: functional, cell-based; conditions: BT-549, 72 h
LS180 = assay: Antiproliferative activity against human LS180 cells assessed as inhibition of cell growth incubated for 72 hrs by celltiter-glo assay; assay type: functional, cell-based; conditions: LS180, 72 h
[2] = Oral bioavailability in Athymic nu-nu mouse at 10 mg/kg measured upto 24 hrs by LC-MS/MS analysis; assay type: ADME, organism-based; conditions: in vivo
MOLM-13 = assay: Antiproliferative activity against human MOLM-13 cells assessed as inhibition of cell growth incubated for 72 hrs by celltiter-glo assay; assay type: functional, cell-based; conditions: MOLM-13, 72 h
[3] = target: Maternal embryonic leucine zipper kinase (Homo sapiens, UniProt Q14680); assay: Inhibition of recombinant MELK (unknown origin) preincubated for 60 mins
Chain of Maternal embryonic leucine zipper kinase (Q14680 whole entry): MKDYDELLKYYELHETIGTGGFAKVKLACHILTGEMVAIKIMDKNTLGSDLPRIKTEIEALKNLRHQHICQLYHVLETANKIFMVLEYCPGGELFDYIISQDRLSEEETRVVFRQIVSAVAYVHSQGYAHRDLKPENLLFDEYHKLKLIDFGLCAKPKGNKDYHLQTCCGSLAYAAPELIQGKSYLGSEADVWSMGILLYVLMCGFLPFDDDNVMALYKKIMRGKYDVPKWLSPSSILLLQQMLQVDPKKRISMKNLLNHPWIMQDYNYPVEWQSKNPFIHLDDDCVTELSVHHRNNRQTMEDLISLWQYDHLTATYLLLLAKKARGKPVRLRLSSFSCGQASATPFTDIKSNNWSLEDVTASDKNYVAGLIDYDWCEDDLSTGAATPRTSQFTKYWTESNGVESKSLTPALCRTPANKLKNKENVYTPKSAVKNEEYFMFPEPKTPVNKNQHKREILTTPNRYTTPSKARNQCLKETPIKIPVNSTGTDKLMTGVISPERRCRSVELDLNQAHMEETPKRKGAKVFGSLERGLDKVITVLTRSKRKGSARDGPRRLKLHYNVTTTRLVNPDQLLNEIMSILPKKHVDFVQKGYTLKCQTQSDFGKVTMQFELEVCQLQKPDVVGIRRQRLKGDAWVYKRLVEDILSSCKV

UACC-62 = assay: Antiproliferative activity against human UACC-62 cells assessed as inhibition of cell growth incubated for 72 hrs by celltiter-glo assay; assay type: functional, cell-based; conditions: UACC-62, 72 h
K562 = assay: Antiproliferative activity against human K562 cells assessed as inhibition of cell growth incubated for 72 hrs by celltiter-glo assay; assay type: functional, cell-based; conditions: K562, 72 h
HCC 2998 = assay: Antiproliferative activity against human HCC 2998 cells assessed as inhibition of cell growth incubated for 72 hrs by celltiter-glo assay; assay type: functional, cell-based; conditions: HCC 2998, 72 h
[4] = target: Cyclin-dependent kinase 4/cyclin D1 (Homo sapiens, UniProt P11802); assay: Inhibition of recombinant CDK4/CYCD1 (unknown origin); assay type: protein-complex assay
Chain of Cyclin-dependent kinase 4/cyclin D1 (P11802 whole entry): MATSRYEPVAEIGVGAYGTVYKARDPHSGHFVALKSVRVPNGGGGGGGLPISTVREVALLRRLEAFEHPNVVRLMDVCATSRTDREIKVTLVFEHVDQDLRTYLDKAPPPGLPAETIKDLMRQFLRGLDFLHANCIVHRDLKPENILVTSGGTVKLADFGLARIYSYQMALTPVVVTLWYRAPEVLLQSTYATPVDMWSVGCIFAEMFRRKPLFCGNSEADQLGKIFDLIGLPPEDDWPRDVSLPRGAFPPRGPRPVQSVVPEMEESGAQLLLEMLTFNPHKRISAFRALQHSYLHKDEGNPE
Chain of Cyclin-dependent kinase 4/cyclin D1 (P24385 whole entry, further chain): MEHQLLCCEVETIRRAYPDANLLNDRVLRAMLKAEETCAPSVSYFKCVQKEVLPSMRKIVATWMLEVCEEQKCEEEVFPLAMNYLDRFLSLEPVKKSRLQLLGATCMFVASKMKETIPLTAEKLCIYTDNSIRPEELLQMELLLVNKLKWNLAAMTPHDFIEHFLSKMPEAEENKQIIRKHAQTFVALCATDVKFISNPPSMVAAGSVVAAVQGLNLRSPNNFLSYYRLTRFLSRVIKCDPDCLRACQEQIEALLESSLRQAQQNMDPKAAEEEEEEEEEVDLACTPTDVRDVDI

HT1197 = assay: Antiproliferative activity against human HT1197 cells assessed as inhibition of cell growth incubated for 72 hrs by celltiter-glo assay; assay type: functional, cell-based; conditions: HT1197, 72 h
DU-145 = assay: Antiproliferative activity against human DU-145 cells assessed as inhibition of cell growth incubated for 72 hrs by celltiter-glo assay; assay type: functional, cell-based; conditions: DU-145, 72 h
[5] = Inhibition of recombinant PDGFR (unknown origin); design: species or system Homo sapiens
SW-403 = assay: Antiproliferative activity against human SW403 cells assessed as inhibition of cell growth incubated for 72 hrs by celltiter-glo assay; assay type: functional, cell-based; conditions: SW-403, 72 h
SNB-75 = assay: Antiproliferative activity against human SNB-75 cells assessed as inhibition of cell growth incubated for 72 hrs by celltiter-glo assay; assay type: functional, cell-based; conditions: SNB-75, 72 h
OVCAR-3 = assay: Antiproliferative activity against human OVCAR-3 cells assessed as inhibition of cell growth incubated for 72 hrs by celltiter-glo assay; assay type: functional, cell-based; conditions: OVCAR-3, 72 h
NCI-H1975 = assay: Antiproliferative activity against human NCI-H1975 cells assessed as inhibition of cell growth incubated for 72 hrs by celltiter-glo assay; assay type: functional, cell-based; conditions: NCI-H1975, 72 h
[6] = Antiproliferative activity against human COLO 206F cells assessed as inhibition of cell growth incubated for 72 hrs by celltiter-glo assay; assay type: functional, cell-based
HCT-116 = assay: Cell cycle arrest in human HCT-116 cells assessed as accumulation of cells at G2/M phase at 0.2 to 1 micromol/L incubated for 48 hrs by FACS/PI staining based flow cytometric analysis; assay type: functional; conditions: dose 0.2-1 µmol/L
LNCaP = assay: Antiproliferative activity against human LNCaP cells assessed as inhibition of cell growth incubated for 72 hrs by celltiter-glo assay; assay type: functional, cell-based
[7] = target: Protein kinase C beta type (Homo sapiens, UniProt P05771); assay: Inhibition of recombinant PKCbeta (unknown origin)
Chain of Protein kinase C beta type (P05771 whole entry): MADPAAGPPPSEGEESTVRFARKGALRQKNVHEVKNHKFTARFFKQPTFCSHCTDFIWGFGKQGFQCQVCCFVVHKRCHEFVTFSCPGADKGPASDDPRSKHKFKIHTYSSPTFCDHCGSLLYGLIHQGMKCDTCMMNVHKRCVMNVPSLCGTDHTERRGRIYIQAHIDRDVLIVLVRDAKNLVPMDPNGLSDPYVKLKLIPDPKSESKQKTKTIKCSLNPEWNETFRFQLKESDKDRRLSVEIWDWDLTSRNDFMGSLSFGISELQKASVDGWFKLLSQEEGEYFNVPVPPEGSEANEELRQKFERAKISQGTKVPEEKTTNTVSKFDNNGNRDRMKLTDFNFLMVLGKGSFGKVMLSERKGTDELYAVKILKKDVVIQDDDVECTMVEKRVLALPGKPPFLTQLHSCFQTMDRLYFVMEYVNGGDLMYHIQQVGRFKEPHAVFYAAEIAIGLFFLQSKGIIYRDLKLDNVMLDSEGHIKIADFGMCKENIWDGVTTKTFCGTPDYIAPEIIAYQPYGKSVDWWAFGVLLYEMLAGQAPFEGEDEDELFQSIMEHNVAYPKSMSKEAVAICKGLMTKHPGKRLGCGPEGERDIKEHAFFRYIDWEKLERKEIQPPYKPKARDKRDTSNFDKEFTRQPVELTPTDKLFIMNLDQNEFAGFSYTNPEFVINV

SU-DHL10 = assay: Antiproliferative activity against human SU-DHL-10 cells assessed as inhibition of cell growth incubated for 72 hrs by celltiter-glo assay; assay type: functional, cell-based; conditions: SU-DHL10, 72 h
[8] = Inhibition of recombinant ABL (unknown origin); design: species or system Homo sapiens
[9] = target: Vascular endothelial growth factor receptor 2 (Homo sapiens, UniProt P35968); assay: Inhibition of recombinant VEGFR2 (unknown origin)
Chain of Vascular endothelial growth factor receptor 2 (P35968 whole entry): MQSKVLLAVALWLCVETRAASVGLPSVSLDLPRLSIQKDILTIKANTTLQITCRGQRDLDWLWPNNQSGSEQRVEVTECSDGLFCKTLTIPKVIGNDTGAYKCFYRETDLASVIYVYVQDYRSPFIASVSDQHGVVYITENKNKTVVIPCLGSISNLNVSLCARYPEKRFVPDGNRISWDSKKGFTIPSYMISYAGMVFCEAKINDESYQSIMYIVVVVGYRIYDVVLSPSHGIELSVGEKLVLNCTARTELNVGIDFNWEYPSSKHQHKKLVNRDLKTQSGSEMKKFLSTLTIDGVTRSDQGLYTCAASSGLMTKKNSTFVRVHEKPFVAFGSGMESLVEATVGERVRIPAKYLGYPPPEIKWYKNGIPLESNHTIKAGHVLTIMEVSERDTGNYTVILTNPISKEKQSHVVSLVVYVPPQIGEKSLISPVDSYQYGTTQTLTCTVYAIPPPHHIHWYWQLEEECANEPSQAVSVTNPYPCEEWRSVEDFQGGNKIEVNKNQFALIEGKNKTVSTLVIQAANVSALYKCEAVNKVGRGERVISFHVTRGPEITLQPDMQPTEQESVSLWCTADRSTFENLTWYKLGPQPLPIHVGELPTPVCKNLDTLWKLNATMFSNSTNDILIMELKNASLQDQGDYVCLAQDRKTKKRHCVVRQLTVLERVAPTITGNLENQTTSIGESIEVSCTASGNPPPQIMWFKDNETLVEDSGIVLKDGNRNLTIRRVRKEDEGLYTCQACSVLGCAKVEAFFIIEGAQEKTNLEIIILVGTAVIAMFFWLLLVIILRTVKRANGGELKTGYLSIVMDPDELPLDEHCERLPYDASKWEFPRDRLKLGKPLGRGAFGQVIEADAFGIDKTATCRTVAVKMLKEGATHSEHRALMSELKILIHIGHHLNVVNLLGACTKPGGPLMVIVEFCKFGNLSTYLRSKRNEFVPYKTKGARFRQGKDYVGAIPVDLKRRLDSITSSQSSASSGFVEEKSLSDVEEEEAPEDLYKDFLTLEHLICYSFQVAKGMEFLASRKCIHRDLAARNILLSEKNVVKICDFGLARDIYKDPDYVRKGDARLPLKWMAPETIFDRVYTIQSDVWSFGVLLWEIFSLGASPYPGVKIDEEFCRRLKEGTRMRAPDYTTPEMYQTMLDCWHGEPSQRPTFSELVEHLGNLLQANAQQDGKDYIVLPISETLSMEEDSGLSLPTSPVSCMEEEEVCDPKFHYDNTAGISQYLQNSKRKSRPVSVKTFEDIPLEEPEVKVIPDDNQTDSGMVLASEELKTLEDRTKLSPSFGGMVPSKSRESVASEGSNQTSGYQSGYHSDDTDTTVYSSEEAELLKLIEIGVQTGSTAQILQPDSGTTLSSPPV

[10] = Half life in Athymic nu-nu mouse at 10 mg/kg, po measured upto 24 hrs by LC-MS/MS analysis; assay type: ADME, organism-based; conditions: in vivo
NCI-H146 = assay: Antiproliferative activity against human NCI-H146 cells assessed as inhibition of cell growth incubated for 72 hrs by celltiter-glo assay; assay type: functional, cell-based; conditions: NCI-H146, 72 h
HL-60 = assay: Antiproliferative activity against human HL-60 cells assessed as inhibition of cell growth incubated for 72 hrs by celltiter-glo assay; assay type: functional, cell-based; conditions: HL-60, 72 h
[11] = target: Mitogen-activated protein kinase 1 (Homo sapiens, UniProt P28482); assay: Inhibition of recombinant ERK2 (unknown origin)
Chain of Mitogen-activated protein kinase 1 (P28482 whole entry): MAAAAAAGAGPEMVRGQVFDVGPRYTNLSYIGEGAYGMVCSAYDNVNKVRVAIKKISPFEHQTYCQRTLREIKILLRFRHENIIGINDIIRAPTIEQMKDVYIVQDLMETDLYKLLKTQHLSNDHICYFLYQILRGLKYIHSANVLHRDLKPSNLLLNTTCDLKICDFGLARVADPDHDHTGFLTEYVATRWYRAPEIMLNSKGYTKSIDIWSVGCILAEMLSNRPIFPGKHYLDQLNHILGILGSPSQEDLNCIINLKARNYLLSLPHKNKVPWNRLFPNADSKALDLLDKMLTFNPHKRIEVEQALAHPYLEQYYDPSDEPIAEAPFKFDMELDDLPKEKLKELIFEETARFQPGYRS

SU-DHL-1 = assay: Antiproliferative activity against human SU-DHL-1 cells assessed as inhibition of cell growth incubated for 72 hrs by celltiter-glo assay; assay type: functional, cell-based; conditions: SU-DHL-1, 72 h
BJ = assay: Inhibition of colony formation in human BJ cells assessed as decrease in colony number at 0.5 to 3 uM incubated for 72 hrs followed by compound washout and measured after 18 days by crystal violet staining based assay; assay type: functional, cell-based; conditions: dose 0.5-3 µM
[12] = Cmax in Athymic nu-nu mouse at 100 mg/kg, po measured upto 24 hrs by LC-MS/MS analysis; assay type: ADME, organism-based; conditions: in vivo
LS174T = assay: Antiproliferative activity against human LS174T cells assessed as inhibition of cell growth incubated for 72 hrs by celltiter-glo assay; assay type: functional, cell-based
Jurkat = assay: Antiproliferative activity against human Jurkat cells assessed as inhibition of cell growth incubated for 72 hrs by celltiter-glo assay; assay type: functional, cell-based
HeLa [13] = assay: Antiproliferative activity against human HeLa cells assessed as inhibition of cell growth incubated for 72 hrs by celltiter-glo assay; assay type: functional, cell-based
HeLa [14] = assay: Effect on BUBR1 level in human nocodazole-arrested HeLa cells at 1 micromol/L in presence of MG132; assay type: functional, cell-based; conditions: dose 1.0 µmol/L
COLO 205 = assay: Antiproliferative activity against human COLO 205 cells assessed as inhibition of cell growth incubated for 72 hrs by celltiter-glo assay; assay type: functional, cell-based; conditions: COLO 205, 72 h
IGROV-1 = assay: Antiproliferative activity against human IGROV-1 cells assessed as inhibition of cell growth incubated for 72 hrs by celltiter-glo assay; assay type: functional, cell-based; conditions: IGROV-1, 72 h
HOP-92 = assay: Antiproliferative activity against human HOP-92 cells assessed as inhibition of cell growth incubated for 72 hrs by celltiter-glo assay; assay type: functional, cell-based; conditions: HOP-92, 72 h
[15] = Toxicity in Athymic nu-nu nude mouse xenografted with human A2780 cells assessed as body weight loss at 90 mg/kg, po administered once a day for 7 days; assay type: organism-based; conditions: in vivo, 168 h, time 7 day
HCT-15 = assay: Antiproliferative activity against human HCT-15 cells assessed as inhibition of cell growth incubated for 72 hrs by celltiter-glo assay; assay type: functional, cell-based; conditions: HCT-15, 72 h
RPMI-8226 = assay: Antiproliferative activity against human RPMI-8226 cells assessed as inhibition of cell growth incubated for 72 hrs by celltiter-glo assay; assay type: functional, cell-based; conditions: RPMI-8226, 72 h

CCc1cccc(CC)c1NC(=O)c1nn(C)c2c1CCc1cnc(Nc3ccc(C(=O)NC4CCN(C)CC4)cc3OC(F)(F)F)nc1-2
pIC50 (RO82-W-1): 5.03 | pIC50 [1]: 5.07 | pIC50 (BT-549): 5.98 | pIC50 (LS180): 5.66 | bioavailability [2]: 37.9% | pIC50 (MOLM-13): 5.98 | pIC50 [3]: > 5.00 | pIC50 (UACC-62): 5.32 | pIC50 (K562): 5.57 | pIC50 (HCC 2998): 5.74 | pIC50 [4]: < 5.00 | pIC50 (HT1197): 5.08 | pIC50 (DU-145): 5.71 | pIC50 [5]: < 5.00 | pIC50 (SW-403): 5.80 | pIC50 (SNB-75): 5.66 | pIC50 (OVCAR-3): 5.21 | pIC50 (NCI-H1975): 5.00 | pIC50 [6]: 5.91 | Activity (HCT-116): Active | pIC50 (LNCaP): 5.51 | pIC50 [7]: < 5.00 | pIC50 (SU-DHL10): 5.80 | pIC50 [8]: < 5.00 | pIC50 [9]: < 5.00 | half-life [10]: 8.01 h | pIC50 (NCI-H146): 5.37 | pIC50 (HL-60): 5.80 | pIC50 [11]: < 5.00 | pIC50 (SU-DHL-1): 5.48 | Activity (BJ): Active | Cmax [12]: 1790 nM | pIC50 (LS174T): 5.71 | pIC50 (Jurkat): 5.44 | pIC50 (HeLa [13]): 5.19 | Activity (HeLa [14]): Active | pIC50 (COLO 205): 6.23 | pIC50 (IGROV-1): 5.94 | pIC50 (HOP-92): 5.66 | Activity [15]: Non-Toxic | pIC50 (HCT-15): 6.63 | pIC50 (RPMI-8226): 5.83
